Among the data in article PMC12040169 (PLOS Biology, 2025) are viability values, retold here.

Broadly, the viability is a read-out of living cells in per cent, often relative to untreated cells.

The nature of one data set: in vitro. Conditions: human, hela cells, % viability.
In the case of `CC(C)Nc1nccnc1OCCOc1cccc(O)c1` [CBK115878], the viability at 28.5 h, 10 µM was 101%.
Same read-out and setting: to `CC(C)Nc1cncc(OCc2cccnc2)n1` [CBK115879] belongs 102%; to `COCCCOc1cncc(NC(C)C)n1` [CBK115880], 89%; to `CC(C)Nc1cncc(OCCCc2ccncc2)n1` [CBK115881], 90.6%.
The same measure, in the same setting: to `CC(C)Nc1cncc(OC2CCOC2)n1` (stereo not shown) [CBK115882] belongs 102%; to `CC(C)Nc1cc(OCCCc2ccncc2)ncn1` [CBK115886], 104%.
Take `Cc1cc(COc2cc(NC(C)C)ncn2)no1` [CBK115887]: the viability at 28.5 h, 10 µM stood at 92.7%.
For `CSCCOc1cc(NC(C)C)ncn1` [CBK115889], the viability at 28.5 h, 10 µM was 86.9%.
In the case of `c1cncc(COc2nccnc2N2CCCC2)c1` [CBK115890], the viability at 28.5 h, 10 µM was 101%.
Regarding `c1cncc(COc2cncc(N3CCCC3)n2)c1` [CBK115892], the viability at 28.5 h, 10 µM is 88.4%.
In the case of `c1cncc(COc2cc(N3CCCC3)ncn2)c1` [CBK115894], the viability at 28.5 h, 10 µM came to 96.9%.
Turning to `Cc1ncsc1CCOc1cc(N2CCCC2)ncn1` [CBK115895], the viability at 28.5 h, 10 µM came to 85.5%.
Still for that read-out and setting: as for `c1cc(CCCOc2cc(N3CCCC3)ncn2)ccn1` [CBK115897], the figure is 84.4%; as for `Cc1cc(COc2cc(N3CCCC3)ncn2)no1` [CBK115898], 93.1%.
Still for that read-out and setting: as for `c1nc(OC2CCOC2)cc(N2CCCC2)n1` (stereo not shown) [CBK115899], the figure is 88.4%; as for `FC(F)(F)c1ccnc(OCc2cccnc2)n1` [CBK115902], 102%.
`O=C(NCC1CCCN1)c1ccccc1Nc1cccc(C(F)(F)F)c1` (stereo not shown) [CBK115916C]: the viability at 28.5 h, 10 µM is 107%.
For `CN(C)CCN(C)C(=O)c1cc(-c2ccc(Cl)cc2)[nH]n1` [CBK115928], the viability at 28.5 h, 10 µM was determined as 94.9%.
Take `COc1cc(NC(=O)Nc2ccc3ccc(Cl)nc3n2)cc(OC)c1OC` [CBK115933]: the viability at 28.5 h, 10 µM worked out at 82.9%.
On the same count and under the same terms, to `CC(C)Nc1nc2ccccc2nc1Sc1cccc(C(=O)O)c1` [CBK115955T] belongs 104%; to `COc1ccc(C2N(CCC(=O)O)CCOC23CCN(C(=O)c2ccc4ccccc4c2)CC3)cc1` (stereo not shown) [CBK115960], 102%.
As for `O=c1[nH]c(SCc2c(Cl)cccc2Cl)nc2ccnn12` [CBK116145], the viability at 28.5 h, 10 µM came out at 92.8%.
Same read-out and setting: as for `O=S(=O)(c1cccc(C(F)(F)F)c1)n1ccc2c(CN3CCC[C@@H]3CO)cccc21` [CBK116167T], the figure is 96.8%; as for `O=S(=O)(c1cccc(C(F)(F)F)c1)n1ccc2c(CN3CCCC3)cccc21` [CBK116168T], 111%.
`Cc1[nH]c(=O)[nH]c(=O)c1C(=O)Nc1ccccc1` [CBK116181]: the viability at 28.5 h, 10 µM turned out to be 96.4%.
On to `O=S(=O)(c1cccs1)n1ccc2c(CN3CCCC3)cccc21` [CBK116195T], for which the viability at 28.5 h, 10 µM was determined as 89.3%.
Take `CCCN1CCN(Cc2cccc3c2ccn3S(=O)(=O)c2cccs2)CC1` [CBK116196T]: the viability at 28.5 h, 10 µM came out at 92%.
In the case of `COc1ccc2[nH]cc(CCNC(=O)CCCN(C)C)c2c1` [CBK116202], the viability at 28.5 h, 10 µM amounted to 96.4%.
The same measure, in the same setting: to `COc1ccc2[nH]cc(CCNC(=O)c3ccco3)c2c1` [CBK116204] belongs 96.5%; to `COc1ccc2[nH]cc(CCNC(=O)Cc3ccsc3)c2c1` [CBK116205], 91.3%.
On the same count and under the same terms, to `COc1ccc2[nH]cc(CCNC(=O)C3CC(=O)c4ccccc43)c2c1` (stereo not shown) [CBK116221] belongs 97.3%.
Same read-out and setting: to `COc1ccc2[nH]cc(CCNC(=O)COc3ccc(O)cc3)c2c1` [CBK116227] belongs 82%.
As for `COCCN1CCOC2(CCN(C(=O)c3ccc4ccccc4c3)CC2)C1c1ccccc1O` (stereo not shown) [CBK116232], the viability at 28.5 h, 10 µM turned out to be 107%.
Turning to `Cc1cc(Br)ccc1-n1sc2ccccc2c1=O` [CBK116239], the viability at 28.5 h, 10 µM came out at 87%.
Same read-out and setting: to `Cc1cc(NC(=O)c2ccco2)c2ccccc2n1` [CBK116258] belongs 106%.
Take `Cc1cc(NC(=O)c2cccc(C(F)(F)F)c2)c2ccccc2n1` [CBK116263]: the viability at 28.5 h, 10 µM stood at 90%.
With `CC(=O)N[C@@H](CC(C)C)C(=O)Nc1cc(C)nc2ccccc12` [CBK116265], the viability at 28.5 h, 10 µM was 94.3%.
`Cc1cc(NC(=O)Cc2ccc(Cl)c(Cl)c2)c2ccccc2n1` [CBK116266]: the viability at 28.5 h, 10 µM worked out at 99.3%.
Take `Cc1cc(NC(=O)c2cccc(C#N)c2)c2ccccc2n1` [CBK116267]: the viability at 28.5 h, 10 µM was determined as 101%.
With `Cc1cc(NC(=O)c2ccc3[nH]ccc3c2)c2ccccc2n1` [CBK116270], the viability at 28.5 h, 10 µM came to 104%.
Turning to `Cc1cc(NC(=O)c2cscn2)c2ccccc2n1` [CBK116275], the viability at 28.5 h, 10 µM is 85.6%.
The same measure, in the same setting: as for `CCOc1ccccc1NC(=O)NC1CC2CCC(C1)N2Cc1ccccc1` (stereo not shown) [CBK116294], the figure is 86.2%; as for `NC(=O)CN1CC2(CCN(C(=O)OCc3ccccc3)CC2)c2ccccc21` [CBK116309], 94.4%.
Take `CC1(OCCN2CCOCC2)SC(NC2CC3CCC2C3)=NC1=O` (stereo not shown) [CBK116313]: the viability at 28.5 h, 10 µM turned out to be 83.8%.
As for `NC(=O)CN1CC2(CCNCC2)c2ccccc21` [CBK116314], the viability at 28.5 h, 10 µM was found to be 117%.
As to `O=C1CCC(C(=O)O)(c2ccccc2)N1c1ccccc1` (stereo not shown) [CBK116358], the viability at 28.5 h, 10 µM is 94.8%.
On the same count and under the same terms, as for `Cc1ccccc1NC(=O)c1ccccc1Cl` [CBK116485], the figure is 104%; as for `Cc1ccnc(-n2sc3ccccc3c2=O)n1` [CBK116499], 97.1%.
In the case of `COC(=O)c1ccc(CSc2nnc(-n3sc4ccccc4c3=O)s2)cc1` [CBK116502], the viability at 28.5 h, 10 µM worked out at 90.6%.
With `O=C(O)c1ccccc1NS(=O)(=O)c1cccc(-n2sc3ccccc3c2=O)c1` [CBK116503], the viability at 28.5 h, 10 µM was 94.7%.
As to `CN(C)CC(=O)NCc1ccc(-c2nc(-c3ccc(C#N)cc3)cnc2N)cc1` [CBK116506], the viability at 28.5 h, 10 µM was determined as 92%.
Consider `COc1ccc(-c2nc(-c3ccc(C(=O)N4CCOCC4)cc3)cnc2N)cc1` [CBK116509], for which the viability at 28.5 h, 10 µM was found to be 108%.
For `O=C(c1cc(-c2ccc(Cl)cc2)[nH]n1)N1CCNCC1` [CBK116548], the viability at 28.5 h, 10 µM turned out to be 99.5%.
Still for that read-out and setting: to `O=C(NCc1ccccn1)c1cc(-c2ccc(Cl)cc2)[nH]n1` [CBK116549] belongs 99.5%; to `CN1CCN(NC(=O)c2cc(-c3ccc(Cl)cc3)[nH]n2)CC1` [CBK116553], 90.8%.
For the molecule `O=C(NCc1ccccn1)c1cc(-c2ccc(Cl)cc2)on1` [CBK116558], the viability at 28.5 h, 10 µM amounted to 83.8%.
Same read-out and setting: as for `O=C(NCc1ccncc1)c1cc(-c2ccc(Cl)cc2)on1` [CBK116559], the figure is 85.7%; as for `CN(C)CC(C)(C)CNC(=O)c1cc(-c2ccc(Cl)cc2)on1` [CBK116561], 101%.

Still in this data set, the particulars now being: human, hela cells, % viability, bulk resorufin, single well.
As for `COc1ccc(CC(=O)Nc2cccc(-c3ccc4c(c3)COC3(CCNCC3)O4)c2)cc1F` [CBK115913], the viability at 28.5 h, 10 µM worked out at 86.5%.
For `COc1cc(-c2ccc3c(c2)COC2(CCN(C(=O)OC(C)(C)C)CC2)O3)ccc1O` [CBK116310], the viability at 28.5 h, 10 µM turned out to be 116%.
For `N#Cc1cccc(-c2ccc3c(c2)COC2(CCN(C(=O)Cc4c[nH]c5ccccc45)CC2)O3)c1` [CBK116346], the viability at 28.5 h, 10 µM was found to be 99.1%.
